The source of these data is US11840515B2, “Methods for preparing N-(4-fluorobenzyl)-N-(1-methylpiperidin-4-yl)-N′-(4-(2-methylpropyloxy)phenylmethyl)carbamide and its tartrate salt and polymorphic form c” (ACADIA Pharmaceuticals Inc., priority 2015, dated 2023).

Data set [1] in a line: thermal stability of polymorphic form. It counts as physicochemical.
Data set [2] in a line: solubility in water / aqueous systems. Format: physicochemical.
The nature of the next data set: bioavailability. It counts as in vivo. Particulars: free base is deliberated at physiological pH ranges.
A further data set can be described thus: storage stability. Format: physicochemical.

Counter-ions that a name gives are not always drawn.

For `CC(C)COc1ccc(CNC(=O)N(Cc2ccc(F)cc2)C2CCN(C)CC2)cc1` [Polymorphic Form C], in data set [1], the “thermostability of the polymorphic form” value is given as “thermostabile”.

In the case of `CC(C)COc1ccc(CNC(=O)N(Cc2ccc(F)cc2)C2CCN(C)CC2)cc1` [pimavanserin, N-(4-fluorophenylmethyl)-N-(1-methylpiperidin-4-yl)-N′-(4-(2-methylpropyloxy)phenylmethyl)carbamide], the solubility in water result in data set [2] (water) is listed as “low”.

Consider `CC(C)COc1ccc(CNC(=O)N(Cc2ccc(F)cc2)C2CCN(C)CC2)cc1` [Pimavanserin tartrate], for which the bioavailability result in the data set “bioavailability” is on record as “high bioavailability”. In addition, in data set [2] (aqueous systems), the “solubility in aqueous systems” value is recorded as “very good”. For the same molecule, the storage stability entry in the data set “storage stability” was “high storage stability”.
